Literature values as cited in patent publication US20230193011A1, “COLOR CHANGING POLYMERIC RESIN COMPOSITIONS” (ECOLAB USA INC., priority 2021, published 2023).
Where two headings read alike, the source gives them in different places.

Conditions: for High pH color: color above the transition range; for Low pH color: color below the transition range; for pH start: pH at which the color change begins; for pH end: pH at which the color change ends
[1] = listed as Malachite green - step 2

| Compound | pKa | High pH color | Low pH color | pH start | pH end | other results |
| --- | --- | --- | --- | --- | --- | --- |
| Cc1cc(O)c(C(C)C)cc1C1(c2cc(C(C)C)c(O)cc2C)OS(=O)(=O)c2ccccc21 [Thymol blue - step 1, Thymol blue] | 1.7 | yellow | red | 1.2 | 2.8 | High pH color (listed as Thymol blue - step 2): blue; Low pH color (listed as Thymol blue - step 2): yellow; pKa (listed as Thymol blue - step 2): 9.2; pH start (listed as Thymol blue - step 2): 8.0; pH end (listed as Thymol blue - step 2): 9.6 |
| Cc1cc(C2(c3cc(C)c(O)c(Br)c3)OS(=O)(=O)c3ccccc32)cc(Br)c1O [Bromocresol purple] | 6.4 | purple | yellow | 5.2 | 6.8 |  |
| Cc1c(C2(c3cc(Br)c(O)c(Br)c3C)OS(=O)(=O)c3ccccc32)cc(Br)c(O)c1Br [Bromocresol green] | 4.7 | blue | yellow | 3.8 | 5.4 |  |
| Cc1cc2nc3ccc(N(C)C)cc3nc2cc1N.Cl [Neutral red] |  | yellow | red | 6.8 | 8.0 |  |
| O=C1OC(c2ccc(O)c3ccccc23)(c2ccc(O)c3ccccc23)c2ccccc21 [Naphtholphthalein] |  | greenish- | pale red | 7.3 | 8.7 |  |
| Methyl purple |  | green | purple | 4.8 | 5.4 |  |
| Cc1cc(O)c(C(C)C)cc1C1(c2cc(C(C)C)c(O)cc2C)OC(=O)c2ccccc21 [Thymolphthalein] | 9.2 | blue | colorless | 9.0 | 10.5 |  |
| CN(C)c1ccc(C(=C2C=CC(=[N+](C)C)C=C2)c2ccccc2)cc1 [Malachite green - step 1, Malachite green] |  | green | yellow | 0.2 | 1.8 | High pH color [1]: colorless; Low pH color [1]: green; pH start [1]: 11.5; pH end [1]: 13.2 |
| CN(C)c1ccc(N=Nc2ccccc2)cc1 [Methyl yellow] | 3.3 | yellow | red | 2.9 | 4.0 |  |
| O=C1OC(c2ccc(O)cc2)(c2ccc(O)cc2)c2ccccc21 [Phenolphthalein] | 9.5 | red-pink | colorless | 8.3 | 10.0 |  |
| O=S1(=O)OC(c2cc(Br)c(O)c(Br)c2)(c2cc(Br)c(O)c(Br)c2)c2ccccc21 [Bromophenol blue] |  | blue | yellow | 3.0 | 4.6 |  |
| O=C(O)c1cc(N=Nc2ccc([N+](=O)[O-])cc2)ccc1O [Alizarin yellow R] | 11.2 | red | yellow | 10.1 | 12.0 |  |
| Cc1cc(C2(c3ccc(O)c(C)c3)OS(=O)(=O)c3ccccc32)ccc1O [Cresol red - step 1, Cresol red] |  | yellow | red | 0.2 | 1.8 | High pH color (listed as Cresol red - step 2): reddish-; Low pH color (listed as Cresol red - step 2): yellow; pH start (listed as Cresol red - step 2): 7.2; pH end (listed as Cresol red - step 2): 8.8 |
| Cc1c(C2(c3cc(C(C)C)c(O)c(Br)c3C)OS(=O)(=O)c3ccccc32)cc(C(C)C)c(O)c1Br [Bromothymol blue] |  | blue | yellow | 6.0 | 7.6 |  |
| O=C1/C(=C2\Nc3ccc(S(=O)(=O)[O-])cc3C2=O)Nc2ccc(S(=O)(=O)[O-])cc21.[Na+].[Na+] [Indigo carmine] |  | yellow | blue | 11.4 | 13.0 |  |
| CN(C)c1ccc(N=Nc2ccc(S(=O)(=O)[O-])cc2)cc1.[Na+] [Methyl orange] | 3.5 | yellow | red | 3.1 | 4.4 |  |
| CN(C)c1ccc(/N=N/c2ccccc2C(=O)O)cc1 [Methyl red] | 5.1 | yellow | red | 4.4 | 6.2 |  |
| Azolitmin [Azolitmin (litmus)] |  | blue | red | 4.5 | 8.3 |  |
| Nc1c(/N=N/c2ccc(-c3ccc(/N=N/c4cc(S(=O)(=O)O)c5ccccc5c4N)cc3)cc2)cc(S(=O)(=O)O)c2ccccc12 [Congo red] |  | red | blue-violet | 3.0 | 5.0 |  |
| Cc1cc(C2(c3ccc(O)c(C)c3)OC(=O)c3ccccc32)ccc1O [Cresolphthalein] |  | purple | colorless | 8.2 | 9.8 |  |
